The experiment relates to U2OS PGC1a acetylation, AlphaLISA, overnight. Description: reduced cellular PGC1a acetyl-lysine signal – cell-based, cherry-picked samples, dose response (AID 720514).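 Note: actives lower the acetylation signal so they count as inhibitors of PGC1a acetylation.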

Each structure is given as a SMILES string.

The AC50 is the concentration at which the activity in the assay is half-maximal. As to `C[C@H]1CN([C@@H](C)CO)C(=O)Cc2cc(NC(=O)Nc3ccccc3)ccc2O[C@@H]1CN(C)Cc1ccccc1`, the AC50 is 21.5 µM.

For the molecule `C[C@H]1[C@@H](OS(=O)(=O)O)C[C@@H]2C[C@H]([C@@H](O)c3cc(=O)[nH]c(=O)[nH]3)NC3=NC[C@H]1N32`, the AC50 was 3.65 µM.

(Values after PubChem BioAssay AID720514 (Broad Institute, 2013).)
